The values below come from patent US12606541B2, “PPARg modulators and methods of use” (Eisai R&D Management Co., Ltd., priority 2020, dated 2026).

Read-outs that look alike come from different tables or passages of the source.

Test [1] concerns UM-UC-9 engineered cells. Put plainly: Cell proliferation / short-term viability assay, CellTiter-Glo 144 h. It counts as cell-based, human. The following applies: read-out: CTGlo 144 h UMUC9.5, G150. The method, then: Cell Seeding for Proliferation Assay
UM-UC-9 engineered cells were cultured in Dulbecco's Modified Eagle Medium (DMEM) supplemented with 10% FBS, 25 mM glucose (high glucose), 4.0 mM L-glutamine, 2.0 mM GlutaMAX™, 1.0 mM pyruvate, 1.0% non-essential amino acids (NEAA) in a 95% humidified incubator at 37° C. with 5% CO2. Cell banks of UM-UC-9 engineered assay-ready cells (ARCs) were prepared from a very active growth stage. Vials of ARCs containing approximately 5×10^6 cells per vial were stored in liquid nitrogen vapor phase cryostorage until use.
For making assay plates, ARCs were recovered from cryostorage, strained in a […] cell strainer, verified for cell viability >90% and counted using a cell counter (Cellometer Auto 1000, Nexelom). Each cell line was seeded into 384-well plates (50 μl/well) using DMEM medium at a density previously determined to be in log growth phase 7 days post-seeding (500 cells/well) using a bulk reagent dispenser (Multidrop™ Combi, Thermo Scientific) with a large-bore plastic-tip cassette pre-sanitized with 70% ethanol. One plate of cells was designated as the pretreatment time-zero (T0) control. Freshly seeded plates were allowed to sit lidded for 30 minutes within a biosafety cabinet for cells to settle distributed within the plate wells uniformly and then placed into an automated incubator (STX110, Liconic) at 37° C., 5% CO2, and 95% relative humidity.
Preparation of Test Compound in Assay-Ready Plate
Compounds were stored in a low-temperature sample archive as 10 mM dimethyl sulfoxide (DMSO) solutions at −20° C. under reduced humidity (−45° C. dew point) and protected from light. All samples in the automated archive are stored in 2D barcoded polypropylene tubes, tracked through a laboratory information management system (LIMS), and have been verified for identity and purity by NMR (Chemistry, H3 Biomedicine) and by LCMS (Analytical Chemistry, H3 Biomedicine) at the time of sample registration. Identity by mass matching and purity are again verified at the time of sample request fulfillment by redundant LCMS methods (acidic and basic separation protocols; Analytical Chemistry, H3 Biomedicine). Samples retrieved from low-temperature archive storage were solubilized by heated sonication (Bransonic® Ultrasonic Bath, Branson), transferred (Microlab Starlet, Hamilton) and serially-diluted (Viaflo Assist, Integra) by low-volume liquid handlers, and tracked in LIMS by automation log files to create a ID barcoded master dose-response plate (MDR) to serve as a standard source for all assay-ready plates (ARP) used within an experiment. ARPs prepared by acoustic transfer (ATS-100, EDC) of nL volumes from the MDR source were heat-sealed (PlateLoc, Agilent) and stored at −20° C. prior to use (<7 days from production). Tracking of liquid transfers via acoustic dispenser log files were used to update the LIMS system for all ARP plate maps.
Measurement of Pretreatment Control Cells and Sample Anti-Proliferative Effects on Treated Cells
On day 0 (pretreatment cells) or day 7 (treated cells), a cell proliferation assay was performed using an automated robotic assay platform (ACell, High-Res Biosolutions). Cell ARP's were removed from incubation, their plate lid discarded, and using a bulk reagent dispenser (Multidrop™ Combi, Thermo Scientific with a small-bore metal-tip cassette) 25 μL (1/2 volume) of Cell Titer-Glo® 2.0 Cell Viability Assay reagent (Promega) was added to wells of columns 1-23 (column 24 will be used as plate background or positive control). Cell ARP's were incubated at room temperature in an automation hotel position for a total of 1.0 minute while the next plate was delivered to the bulk reagent dispenser and then lid-free cell ARP's were returned to incubate at 37° C. for 2.5 hours. […]

Test [2] addresses T1, His6-TEV-PPARγ-(234-505) (Homo sapiens, UniProt P37231).
T1 construct: The His6-TEV-PPARγ-(234-505) protein for assay was expressed and purified; TEV cleavage site (N); made in house
T1 sequence (P37231 234-505): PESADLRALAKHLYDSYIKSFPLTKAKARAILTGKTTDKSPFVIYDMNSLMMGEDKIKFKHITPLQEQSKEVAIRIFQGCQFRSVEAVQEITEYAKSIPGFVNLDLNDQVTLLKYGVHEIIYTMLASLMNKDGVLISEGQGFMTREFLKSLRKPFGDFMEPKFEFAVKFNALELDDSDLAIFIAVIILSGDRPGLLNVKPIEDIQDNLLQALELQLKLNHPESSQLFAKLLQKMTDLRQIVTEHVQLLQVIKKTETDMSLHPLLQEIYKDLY
As to the kind of experiment: TR-FRET Assay to Measure Co-R Peptide Recruitment to PPARγ. It counts as biochemical. The settings on record: Co-R peptide (SMRT-ID2) recruitment; top final concentration 20 μM; read-out: TR-FRET i-Ag; AC50. The method in brief:
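His-tagged PPARγ (or controls) was preincubated with compound for 20 minutes at room temperature, then 5 nM anti-His terbium antibody and 200 nM FITC-labeled SMRT-ID2 corepressor peptide (final) were added for a further hour. TR-FRET signal was normalized to percent response using 500 nM T0070907 and DMSO controls.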
Background: In TR-FRET formats the signal depends on donor and acceptor labels being close together.

With `COc1cc(-c2cc(C(=O)N3CCC(C(=O)NC4COC(C)C4)CC3)n[nH]2)c(Cl)cn1` (mixture of isomers) [Example 247, 1-(5-(5-chloro-2-methoxypyridin-4-yl)-1H-pyrazole-3-carbonyl)-N-(5-methyltetrahydrofuran-3-yl)piperidine-4-carboxamide], the IC50 in test [1] (Homo sapiens, UM-UC-9, 144 h) is 2230 nM. Also, the AC50 in test [2] is 565 nM.
Regarding `COc1cc(-c2cc(C(=O)N3CCC(C(=O)NC4CCC(C)CC4)CC3)n[nH]2)c(Cl)cn1` (single isomer, unassigned) [Example 101-B], the IC50 in test [1] (listed as 101b) worked out at 84 nM. Also, the AC50 in test [2] was found to be 9.2 nM.
As for `COc1cc(-c2cc(C(=O)N3CCC(C(=O)NC4CCC(F)(F)C4)CC3)n[nH]2)c(Cl)cn1` (racemic) [Example 175, 1-(5-(5-chloro-2-methoxypyridin-4-yl)-1H-pyrazole-3-carbonyl)-N-(3,3-difluorocyclopentyl)piperidine-4-carboxamide], in test [1] (Homo sapiens, UM-UC-9, 144 h), the IC50 turned out to be 1640 nM. In addition, in test [2], the AC50 is 349 nM.
As to `CO[C@]1(C(F)(F)F)CC[C@@H](NC(=O)[C@H]2CCN(C(=O)c3cc(-c4cc(C)ncc4F)[nH]n3)C3(CC3)C2)CC1` (single isomer, unassigned) [Example 293-C], the IC50 in test [1] (Homo sapiens, UM-UC-9, 144 h) worked out at 1.6 nM. Moreover, in test [2], the AC50 was found to be 2.8 nM.
Regarding `COc1cc(-c2cc(C(=O)N3CCC(C(=O)NC4c5ccccc5OCC4OC)CC3)n[nH]2)c(Cl)cn1` (mixture of isomers) [Example 252, 1-(5-(5-chloro-2-methoxypyridin-4-yl)-1H-pyrazole-3-carbonyl)-N-(3-methoxychroman-4-yl)piperidine-4-carboxamide], the IC50 in test [1] (Homo sapiens, UM-UC-9, 144 h) worked out at 1150 nM. The AC50 in test [2] is 182 nM.
Consider `COc1cc(-c2cc(C(=O)N3CC[C@H](C(=O)NCc4c(C(F)(F)F)nn(C)c4Cl)CC34CC4)[nH]n2)c(F)cn1` [Example 526, (S)—N-((5-chloro-1-methyl-3-(trifluoromethyl)-1H-pyrazol-4-yl)methyl)-4-(3-(5-fluoro-2-methoxypyridin-4-yl)-1H-pyrazole-5-carbonyl)-4-azaspiro[2.5]octane-7-carboxamide], for which the IC50 in test [1] (Homo sapiens, UM-UC-9, 144 h) was 7.1 nM. In test [2], the AC50 is 3.7 nM.
`COc1cc(-c2cc(C(=O)N3CCC(C(=O)NCc4cccc(Cl)c4)C(C)C3)n[nH]2)c(Cl)cn1` (mixture of isomers) [Example 173, 1-(5-(5-chloro-2-methoxypyridin-4-yl)-1H-pyrazole-3-carbonyl)-N-(3-chlorobenzyl)-3-methylpiperidine-4-carboxamide]: the IC50 in test [1] (Homo sapiens, UM-UC-9, 144 h) came to 2100 nM. Besides, in test [2], the AC50 came to 674 nM.
The matching figures for `COc1cc(-c2cc(C(=O)N3CC[C@H](C(=O)NCc4ncc(N5CCN(C)CC5)cc4Cl)CC34CC4)n[nH]2)c(F)cn1` [Example 521, (S)—N-((3-chloro-5-(4-methylpiperazin-1-yl)pyridin-2-yl)methyl)-4-(5-(5-fluoro-2-methoxypyridin-4-yl)-1H-pyrazole-3-carbonyl)-4-azaspiro[2.5]octane-7-carboxamide]: 19.8 nM and 1.8 nM.
Turning to `COc1cc(-c2cc(C(=O)N3CCC(C(=O)NC4CN(CC(C)(C)F)CC4(F)F)CC34CC4)n[nH]2)c(F)cn1` (mixture of isomers) [Example 379, (S)—N—((S)-4,4-difluoro-1-(2-fluoro-2-methylpropyl)pyrrolidin-3-yl)-4-(5-(5-fluoro-2-methoxypyridin-4-yl)-1H-pyrazole-3-carbonyl)-4-azaspiro[2.5]octane-7-carboxamide and (S)—N—((R)-4,4-difluoro-1-(2-fluoro-2-methylpropyl)pyrrolidin-3-yl)-4-(5-(5-fluoro-2-methoxypyridin-4-yl)-1H-pyrazole-3-carbonyl)-4-azaspiro[2.5]octane-7-carboxamide], the IC50 in test [1] stood at 11 nM. In test [2], the AC50 was 12.2 nM.
For the compound `COc1cc(-c2cc(C(=O)N3CC[C@@H](C(=O)NCc4ccc5[nH]nc(F)c5c4)CC34CC4)n[nH]2)c(F)cn1` (single isomer, unassigned) [Example 288-B], the IC50 in test [1] (Homo sapiens, UM-UC-9, 144 h) came out at 56.8 nM. Further, the AC50 in test [2] was determined as 39 nM.
